Test results as given in US20130296346A1, “DIPHENYL-AMINE DERIVATIVES: USES, PROCESS OF SYNTHESIS AND PHARMACEUTICAL COMPOSITIONS” (Faes Farma, S.A., priority 2010, published 2013).
Where a name gives a salt, the structure may show the parent alone.

Columns and labels:
TNFr = assay: TNF-R transfectant, NF-kB reporter gene (secreted phosphatase); format: cell-based
Description: (§1) The secreted phosphatase sPase was used as reporter for its ability to process the luminiscent or colorimetric substrates from the culture based in the hydrolysis of substrates chemically similar to nitrophenol phosphate. Five generation of transfectants were developed as described: • 1. IL-4R. Chains of Type II IL-4-r, which is the common one within non-haematopoietic cells were transfected, as well as STAT6 which the key molecule in the nuclear signalling route by IL-4-r, and finally a reporter gene to measure the response to STAT6 was introduced. Endogenously, cells had Janus Associated Kinase 1 (JAK1) which was previously known to be associated with STAT6 via p62/aPKC. • 2. IL-6R. Chains of IL-6R were transfected and a reporter gene able to measure the response to STAT3 was introduced. As it is well known, STAT3 is a transductional molecule and a nuclear factor physiologically produced in the standard responses IL-6/IL-6R. • 3. TNF-R. In this case, a reporter gene able to measure the response to NF-kB was introduced, as this is the transductional molecule and the nuclear factor physiologically produced in response to TNF-alpha. […] LPS-Receptor complex represented by TLR4/MD2/CD14. Reporter genes with elements of response to NFkB were used as in the previous case, but the selectivity was achieved by the co-transfection of components of the LPS-R complex. The LPS is captured from the serum through the union to one plasma protein known as LBP, which transfers the LPS to the membrane protein CD14. The LBP inclusion accounts for an increase of 1000-fold the sensitivity versus media or cultures LBP-frees. The molecule CD14 is not an LPS-receptor but a module of the receptor complex which captures LBP, allowing the transference of LPS in the cellular surface to MD2. CD14 has not a cytoplasmic tail and it is not able to be a signal transducer but it substantially increases the sensitivity of the system. In a similar way, MD2 is not a signal transducer but the combination of CD14 and MD2 allows the increase of the sensitivity by 10000-fold. • 5. IL-1R. Reporter genes with elements of response to NFkB were used as in the previous case, but the selectivity was achieved by the expression of components belonging to the receptor complex IL-1R. IL-1R belongs to a receptors superfamily which uses TIR transduction domains (Toll-like IL-1R). It is known that the IL-1R route activates mitogen-activated protein kinases (MAPK) of JNK type which in turn generate nuclear factors transcriptionally active as AP-1. The reporter gene includes NFkB and AP-1 sites chained in order to simulate the physiological situation.

IL6r = assay: IL-6R transfectant, STAT3 reporter gene (secreted phosphatase); format: cell-based
Description: as §1

IL4r = assay: IL-4R transfectant, STAT6 reporter gene (secreted phosphatase); format: cell-based
Description: as §1

B16-F1 = assay: In vitro cytotoxicity, SRB method; format: cell-based; conditions: Mus musculus, B16-F1 melanoma, 72 hours
Experimental: (§2) SRB method was followed (Wieland, V., et al. Sulforhodamine B Assay and Chemosensitivity. Chemosensitivity, volume 1, In Vitro Assays. Methods in Molecular Medicine. Edited by Rosalyn D. Blumenthal. Humana Press, Totowa, N.J., 2005).
(§3) Cells were seeded in microplates of 96 wells. In each well, according to the cell type, specific number of cells were seeded in 200 microliters. In these conditions, cells were cultured for 3 days, with the aim of reaching their exponential phase of growing to assay the product cytotoxicity. The product concentrations were prepared just the day of treatments, after thawing the stock solutions (10 mM). After harvesting the microplate with the seeded cells for 3 days, the culture medium was discarded and replaced by 150 μl of fresh medium in each well. This was followed by the addition of 50 μl of the corresponding product dilution so as the final concentration in the final volume of 200 microliters in each well was the one scheduled. The products, at the assayed concentrations, were in contact with the cell growing monolayer for 72 hours and incubated at 37° C., 5% CO2. Finally, cells were growth arrested adding […] of cold TCA (Trichloroacetic acid) 50%, (final concentration of 10% in the well). Microplate was then maintained at 4° C. for over 60 min to fix cellular proteins till initiation of washing and staining with SRB.
(§4) Cell viability (%)=(Cell population of the treated well/Maximum cell population of the Standard curve)×100.
(§5) Mean viability values for each concentration were calculated from the values obtained for each well in which that concentration was assayed.

HCT116 = assay: In vitro cytotoxicity, SRB method; format: cell-based; conditions: Homo sapiens, HCT-116, HCT116 colon cancer, 72 hours
Experimental: as §2, §3, §4, §5

HepG2 = assay: In vitro cytotoxicity, SRB method; format: cell-based; conditions: Homo sapiens, HepG2 hepatoma, 72 hours
Experimental: as §2, §3, §4, §5

Malm-3M = assay: In vitro cytotoxicity, SRB method; format: cell-based; conditions: Malm-3M melanoma, 72 hours
Experimental: as §2, §3, §4, §5

NCI-H460 = assay: In vitro cytotoxicity, SRB method; format: cell-based; conditions: Homo sapiens, NCI-H460 lung, 72 hours
Experimental: as §2, §3, §4, §5

SF268 = assay: In vitro cytotoxicity, SRB method; format: cell-based; conditions: Homo sapiens, SF-268, SF268 glioblastoma, 72 hours
Experimental: as §2, §3, §4, §5

SW260 = assay: In vitro cytotoxicity, SRB method; format: cell-based; conditions: SW260 colon cancer, 72 hours
Experimental: as §2, §3, §4, §5

[1] = Cytotoxicity for human non-tumoral cells, XTT; format: cell-based; conditions: HUVEC cells (primary, from human cords)
Experimental: (§6) The cytotoxicity of the compounds for human non-tumoral cells was studied in fibroblasts, HUVEC cells and resting PBLs (Peripheral Blood lymphocytes).
HUVEC cells were obtained by treating human cords with collagenase type I, […] in Hank's medium incubating 20 minutes at 37° C. Cells were collected afterwards and cultivated in medium M199 with supplements of 20% FBS, 1% P/S and 25 mg/500 ml of medium ECGF, Cells were grown on a 0.2% gelatin matrix.
(§7) Distinct amounts of exponentially growing cells were seeded in 96-well flat-bottomed microtiter plates in a final volume of 100 μl were seeded in 96-well flat-bottomed microtiter plates, and incubated at 37° C. in a humidified atmosphere of 5% CO2/95% air for 24 h to allow the cells attach to the plates. Then, cells were incubated with different concentrations of the assayed compound at 37° C. under the 5% CO2/95% air atmosphere for 72 h. Cell proliferation was quantified using the XTT cell proliferation kit (Roche Molecular Biochemicals, Mannheim, Germany) following the manufacturer's instructions. Briefly, a freshly prepared mixture solution (50 μl) of XTT labelling reagent and PMS (N-methyldibenzopyrazine methyl sulfate) electron coupling reagent was added to each well. The resulting mixtures were further incubated for 4 h in a humidified atmosphere (37° C., 5% CO2), and the absorbance of the formazan product generated was measured with a microtiter plate reader at a test wavelength of 490 nm and a reference wavelength of 655 nm. The IC50 (50% inhibitory concentration) was then calculated as the drug concentration causing a 50% inhibition of cell proliferation. Data are shown as mean values of four independent experiments each performed in triplicate.

resting human PBLs = assay: Apoptosis of resting human PBLs; format: cell-based
Experimental: To isolate normal peripheral blood lymphocytes (PBLs), mononuclear cells were obtained from fresh human peripheral blood from healthy volunteers by centrifugation on Ficoll-Hypaque density gradients, washed with phosphate-buffered saline (PBS), and resuspended in RPMI-1640 medium containing 10% (v/v) heat-inactivated FBS, 2 mM L-glutamine, 100 U/ml penicillin, and 100 μg/ml streptomycin as described (Cabaner et al. Br. J. Pharmacol 127:813-825.1999). Monocytes were depleted by culture dish adherence after overnight incubation. Nonadherent cells (lymphocytes) were washed with PBS and collected. PBL preparations were typically 70-75% CD3^+, 24-29% CD 19^+, and less than 0.4% CD 14^+.

[2] = Cytotoxicity for human non-tumoral cells, XTT; format: cell-based; conditions: Fibroblasts
Experimental: as §6, §7

In the case of `Cl.FC(F)(F)c1ccc(CNCCCC=C(c2ccccc2)c2ccccc2)cc1`, the melting point is reported as 121.4 to 122.7 °C.

With `Cl.FC(F)(F)Oc1ccc(CNCCC=C(c2ccccc2)c2ccccc2)cc1` the melting point was 126 to 128 °C.

Work on `Cl.FC(F)(F)Oc1ccc(CNCCCCC=C(c2ccccc2)c2ccccc2)cc1` yielded a melting point of 109 to 110.5 °C.

Work on `COc1ccc(CNCCCC=C(c2ccccc2)c2ccccc2)cc1.Cl` yielded a melting point of 69.2 to 73.8 °C.

`C(CCCNCc1ccsc1)=C(c1ccccc1)c1ccccc1.Cl` gave a melting point of 108 to 109.7 °C.

With `C(CCCNCc1ccccn1)=C(c1ccccc1)c1ccccc1.Cl` the melting point was 125 to 126.9 °C.

Compound `Cl.FC(F)(F)Oc1cccc(CNCCCC=C(c2ccccc2)c2ccccc2)c1` has a melting point of 102.4 to 104 °C.

For `Cl.FC(F)(F)Oc1ccccc1CNCCCC=C(c1ccccc1)c1ccccc1` [Compound 10, (5,5-diphenyl-pent-4-enyl)-(2-trifluoromethoxybenzyl)amine hydrochloride], the “Inhibition of TNFr” value (TNFr) was “Inhibition of TNFr up 30%”, the “Inhibition of IL6r” value (IL6r) was “Inhibition of IL6r down 5%” and the “Inhibition of IL4r” value (IL4r) was “Inhibition of IL4r total”. It also gave a melting point of 109 to 110.7 °C.

With `C(CCNCc1cccs1)=C(c1ccccc1)c1ccccc1.Cl` [Compound 13, (4,4-diphenyl-but-3-enyl)-thiophen-2-ylmethyl-amine hydrochloride] the “Inhibition of TNFr” value (TNFr) was “Inhibition of TNFr total”, the “Inhibition of IL6r” value (IL6r) was “Inhibition of IL6r total” and the “Inhibition of IL4r” value (IL4r) was “Inhibition of IL4r total”. The melting point was 163 to 165.5 °C.

In the case of `Cc1nc2ccccc2n1CCCC=C(c1ccccc1)c1ccccc1` [Compound 27], the “Inhibition of TNFr” value (TNFr) is reported as “Inhibition of TNFr total”, the “Inhibition of IL6r” value (IL6r) is reported as “Inhibition of IL6r low-75%” and the “Inhibition of IL4r” value (IL4r) is reported as “Inhibition of IL4r total”.

In the case of `C(CCCn1ccnc1)=C(c1ccccc1)c1ccccc1` [Compound 28, 1-(5,5-Diphenyl-pent-4-enyl)-1H-imidazole], the “Inhibition of TNFr” value (TNFr) is reported as “Inhibition of TNFr 25%”, the “Inhibition of IL6r” value (IL6r) is reported as “Inhibition of IL6r down-low (*)” and the “Inhibition of IL4r” value (IL4r) is reported as “Inhibition of IL4r 75%”.

For `Clc1nc(NCCCCC=C(c2ccccc2)c2ccccc2)c2nc[nH]c2n1` [Compound 29, (2-Chloro-9H-purin-6-yl)-(6,6-diphenyl-hex-5-enyl)-amine], the melting point was 205.7 to 207 °C.

With `C(CCCCNc1ncnc2[nH]ncc12)=C(c1ccccc1)c1ccccc1` [Compound 40, (6,6-Diphenyl-hex-5-enyl)-(1H-pyrazolo[3,4-d]pyrimidin-4-yl)amine] the IC50 (B16-F1) was 9 µM, the IC50 (HCT116) was 5 to 50 µM and the IC50 (HepG2) was 5 to 50 µM. For the same compound, the IC50 (Malm-3M) was 30 µM, the IC50 (NCI-H460) was 8.1 µM and the IC50 (SF268) was 33 µM. The IC50 (SW260) was 50 µM and the IC50 at 72 h [1] was 36 µM.

With `C(CCCNc1ncnc2[nH]ncc12)=C(c1ccccc1)c1ccccc1` [Compound 41, (5,5-Diphenyl-pent-4-enyl)-(1H-pyrazolo[3,4-d]pyrimidin-4-yl)amine] the IC50 (B16-F1) was 6 µM, the IC50 (HCT116) was 5 to 50 µM and the IC50 (HepG2) was 5 to 50 µM. For the same compound, the IC50 (Malm-3M) was 44 µM, the IC50 (NCI-H460) was 2 µM and the IC50 (SF268) was 17 µM. For the same compound, the IC50 (SW260) was 5 to 50 µM.

In the case of `CC(C)n1ncc2c(NCCCCC=C(c3ccccc3)c3ccccc3)ncnc21` [Compound 44, (6,6-Diphenyl-hex-5-enyl)-(1-isopropyl-1H-pyrazolo[3,4-d]pyrimidin-4-yl)amine hydrochloric salt], the IC50 (B16-F1) is reported as 8 µM, the IC50 (HCT116) is reported as 5 to 50 µM and the IC50 (HepG2) is reported as 5 to 50 µM. The IC50 (Malm-3M) was 40 µM, the IC50 (NCI-H460) was 9.4 µM and the IC50 (SF268) was 31 µM. For the same compound, the IC50 (SW260) was 50 µM.

In the case of `COc1cccc2c1C(=O)c1c(O)c3c(c(O)c1C2=O)C[C@@](O)(C(=O)CO)C[C@@H]3O[C@H]1C[C@H](N)[C@H](O)[C@H](C)O1` [Doxorubicin, reference compound], the IC50 at 72 h [1] is reported as 0.23 µM, the “% Apoptosis PBLs” value (resting human PBLs; 10^−4 M) is reported as 21.7% and the “% Apoptosis PBLs” value (resting human PBLs; 10^−5 M) is reported as 13.2%.

Work on `CC(=O)O[C@H]1C(=O)[C@@]2(C)[C@H]([C@H](OC(=O)c3ccccc3)[C@]3(O)C[C@H](OC(=O)[C@H](O)[C@@H](NC(=O)c4ccccc4)c4ccccc4)C(C)=C1C3(C)C)[C@]1(OC(C)=O)CO[C@@H]1C[C@@H]2O` [Taxol, reference compound] yielded an IC50 at 72 h [1] of 0.00047 µM and an IC50 at 72 h [2] of 0.00075 µM.
